Data set [1] can be described thus: Stability of amlodipine in contact with the basic telmisartan formulation. Conditions: direct contact with excipients to be used in a telmisartan formulation (basic components, e.g. sodium hydroxide or meglumine). The format is physicochemical. An excerpt:
There are various types of fixed dose combination dosage forms conceivable but it cannot be predicted which of these dosage forms best combines product stability, pharmacological efficacy, and reliable manufacture. Generally, combinations of two active pharmaceutical ingredients could be formulated as oral solid or oral liquid dosage forms such as tablets, capsules, coated or sugar-coated tablets, granules, oral solutions, emulsions or suspensions, syrups, and lozenges. In view of experiences with liquid dosage forms of telmisartan, oral liquid dosage forms are not considered a preferred embodiment according to the present invention. An instant release oral solid dosage form containing two drugs could be prepared by either making a powder mixture or a co-granulate of the two active ingredients with the necessary excipients. However, for a combination of telmisartan and amlodipine, this approach turns out not to result in a dosage form with sufficient product stability. […] The ester bonds in the amlodipine molecule appear to be subject to hydrolysis when exposed to an alkaline milieu. […]

For data set [2] the following is noted: physiological pH range of the gastrointestinal tract between pH 1 to 7; cited from earlier work.

Data on 2 compounds can be found in patent US20060110450A1, “Bilayer tablet of telmisartan and amlodipine” (Boehringer Ingelheim International GmbH, priority 2004, published 2006).

For “3-ethyl-5-methyl-2-(2-aminoethoxymethyl)-4-(2-chlorophenyl)-1,4-dihydro-6-methyl-3,5-pyridinedicarboxylate [amlodipine]”, in data set [1], the stability of amlodipine result was “not stable enough”.
As to `CCCc1nc2c(C)cc(-c3nc4ccccc4n3C)cc2n1Cc1ccc(-c2ccccc2C(=O)O)cc1` [Telmisartan, 4′-[2-n-propyl-4-methyl-6-(1-methylbenzimidazol-2-yl)benzimidazol-1-ylmethyl]biphenyl-2-carboxylic acid], the “solubility in aqueous systems” value in data set [2] is listed as “very poor solubility”.
